# Experimental data published in patent US8785457B2 (Cellzome Limited, priority 2009, dated 2014).
# Like-named read-outs stand apart in the source and are kept apart here.
# Biological target: T1, PI3K delta (PI3 Kd) (Homo sapiens, UniProt O00329)
# T1 construct: endogenous in cells; host or cells: Jurkat, clone E6-1 (ATCC TIB-152) cell lysate
# Test: kinobeads assay, PI3K delta
# Format: binding
# Outline: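 Competitive binding in Jurkat cell lysate (5 mg/ml total protein): test compounds at various concentrations competed with beads bearing immobilized phenylmorpholin-chromen ligand. Bead-bound kinases were eluted and quantified by antibody dot blot with infrared detection; IC50 values came from dose-response curves.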
# [1] = kinobeads assay, Table 4, read-out: Inhibition values (IC50) PI3Kd
# [2] = kinobeads assay, Table 6, read-out: Inhibition values (IC50) PI3Kd
# [3] = Further Kinobeads Data, read-out: PI3Kd
# T1 sequence (O00329 whole entry): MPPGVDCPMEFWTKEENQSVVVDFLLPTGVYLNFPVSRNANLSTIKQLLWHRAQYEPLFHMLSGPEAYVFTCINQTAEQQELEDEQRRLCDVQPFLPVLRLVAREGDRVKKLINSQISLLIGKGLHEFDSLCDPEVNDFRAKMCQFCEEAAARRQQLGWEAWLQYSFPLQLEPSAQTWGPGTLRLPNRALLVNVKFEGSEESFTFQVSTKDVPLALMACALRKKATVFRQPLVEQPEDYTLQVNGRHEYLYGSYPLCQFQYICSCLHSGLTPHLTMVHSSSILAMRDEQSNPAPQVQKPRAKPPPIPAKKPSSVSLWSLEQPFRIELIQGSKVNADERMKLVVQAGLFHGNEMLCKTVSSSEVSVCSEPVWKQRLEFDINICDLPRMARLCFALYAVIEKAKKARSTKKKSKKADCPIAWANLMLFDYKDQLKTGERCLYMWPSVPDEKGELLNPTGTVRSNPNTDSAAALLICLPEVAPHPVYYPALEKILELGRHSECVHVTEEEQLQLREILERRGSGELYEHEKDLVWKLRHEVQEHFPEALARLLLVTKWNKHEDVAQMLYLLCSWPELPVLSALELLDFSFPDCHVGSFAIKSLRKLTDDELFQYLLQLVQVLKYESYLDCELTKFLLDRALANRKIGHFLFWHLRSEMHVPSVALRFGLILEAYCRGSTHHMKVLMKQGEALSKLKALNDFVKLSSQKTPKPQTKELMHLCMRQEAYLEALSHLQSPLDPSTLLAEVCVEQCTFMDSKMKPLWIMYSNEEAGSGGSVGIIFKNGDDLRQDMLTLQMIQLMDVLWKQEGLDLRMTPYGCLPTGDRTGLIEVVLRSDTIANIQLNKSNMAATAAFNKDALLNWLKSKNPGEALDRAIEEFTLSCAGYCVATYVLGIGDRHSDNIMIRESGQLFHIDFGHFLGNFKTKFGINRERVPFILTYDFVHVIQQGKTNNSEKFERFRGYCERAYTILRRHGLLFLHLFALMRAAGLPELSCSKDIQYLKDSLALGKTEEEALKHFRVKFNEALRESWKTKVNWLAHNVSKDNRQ
# T1 sequence (P27986 whole entry partner): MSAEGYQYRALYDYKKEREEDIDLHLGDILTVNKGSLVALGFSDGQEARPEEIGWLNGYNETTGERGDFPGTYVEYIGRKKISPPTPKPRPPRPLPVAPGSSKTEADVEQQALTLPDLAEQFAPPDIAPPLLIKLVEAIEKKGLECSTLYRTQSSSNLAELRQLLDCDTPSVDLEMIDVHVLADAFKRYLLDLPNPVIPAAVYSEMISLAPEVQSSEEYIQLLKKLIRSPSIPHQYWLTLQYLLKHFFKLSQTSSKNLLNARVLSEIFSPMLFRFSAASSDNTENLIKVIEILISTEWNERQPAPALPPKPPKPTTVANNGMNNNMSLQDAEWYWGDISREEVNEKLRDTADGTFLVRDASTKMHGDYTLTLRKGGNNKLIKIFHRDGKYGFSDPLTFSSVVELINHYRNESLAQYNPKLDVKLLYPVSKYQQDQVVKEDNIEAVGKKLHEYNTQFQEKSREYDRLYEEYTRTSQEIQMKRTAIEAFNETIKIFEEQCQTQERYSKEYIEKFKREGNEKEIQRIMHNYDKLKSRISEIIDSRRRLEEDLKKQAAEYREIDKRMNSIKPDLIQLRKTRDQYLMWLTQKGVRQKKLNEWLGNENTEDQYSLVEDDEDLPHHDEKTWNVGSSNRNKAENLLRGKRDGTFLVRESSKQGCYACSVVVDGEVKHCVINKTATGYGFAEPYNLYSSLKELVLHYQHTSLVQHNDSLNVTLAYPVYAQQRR
Compound,IC50 [1] [µM],IC50 [2] [µM],IC50 [3] [µM]
C[C@H]1COCCN1c1nc(-c2ccc(NC(=O)NC3CC3)cc2)nc2c1CN(CC1CC1)C2 [Example 30],> 10,> 10,
"C[C@@H]1COCCN1c1nc(-c2ccc(NC(=O)NC3CC3)cc2F)nc2c1CN(C=O)C2 [Example 190, (R)-1-cyclopropyl-3-(3-fluoro-4-(6-formyl-4-(3-methylmorpholino)-6,7-dihydro-5H-pyrrolo[3,4-d]pyrimidin-2-yl)phenyl)urea]",,,> 10
"C[C@H]1COCCN1c1nc(-c2ccc(NC(=O)NC3CC3)cc2)nc2c1CN(C(=O)C1CC1)C2 [Example 17, (S)-1-(4-(6-(cyclopropanecarbonyl)-4-(3-methylmorpholino)-6,7-dihydro-5H-pyrrolo[3,4-d]pyrimidin-2-yl)phenyl)-3-cyclopropylurea]",> 10,> 10,
"C[C@H]1COCCN1c1nc(-c2ccc(NC(=O)NC3CC3)cc2)nc2c1CCNC2 [Example 15, (S)-1-cyclopropyl-3-(4-(4-(3-methylmorpholino)-5,6,7,8-tetrahydropyrido[3,4-d]pyrimidin-2-yl)phenyl)urea]",> 10,> 10,
"CCNC(=O)Nc1ccc(-c2nc3c(c(N4CCOC[C@@H]4C)n2)CCNC3)cc1 [Example 13, (S)-1-ethyl-3-(4-(4-(3-methylmorpholino)-5,6,7,8-tetrahydropyrido[3,4-d]pyrimidin-2yl)phenyl)urea]",> 10,> 10,
"CC(=O)N1Cc2nc(-c3ccc(NC(=O)NC4CC4)cc3F)nc(N3CCOC[C@@H]3C)c2C1 [Example 155, (S)-1-(4-(6-acetyl-4-(3-methylmorpholino)-6,7-dihydro-5H-pyrrolo[3,4-d]pyrimidin-2-yl)-3-fluorophenyl)-3-cyclopropylurea]",,,> 10
"C[C@H]1COCCN1c1nc(-c2ccc(NC(=O)NC3CC3)cc2)nc2c1CNCC2 [Example 11, (S)-1-cyclopropyl-3-(4-(4-(3-methylmorpholino)-5,6,7,8-tetrahydropyrido[4,3-d]pyrimidin-2-yl)phenyl)urea]",> 10,> 10,
"C[C@H]1COCCN1c1nc(-c2ccc(NC(N)=O)cc2)nc2c1CN(CC1CC1)C2 [Example 48, (S)-1-(4-(6-(cyclopropylmethyl)-4-(3-methylmorpholino)-6,7-dihydro-5H-pyrrolo[3,4-d]pyrimidin-2-yl)phenyl)urea]",1 to 10,1 to 10,
"CC(C)C(=O)N1Cc2nc(-c3ccc(NC(=O)NC4CC4)cc3F)nc(N3CCOC[C@@H]3C)c2C1 [Example 174, (S)-1-cyclopropyl-3-(3-fluoro-4-(6-isobutyryl-4-(3-methylmorpholino)-6,7-dihydro-5H-pyrrolo[3,4-d]pyrimidin-2-yl)phenyl)urea]",,,> 10
"C[C@@H]1COCCN1c1nc(-c2ccc(NC(=O)NC3CC3)cc2F)nc2c1CN(C(=O)C1CC1)C2 [Example 188, (R)-1-(4-(6-(cyclopropanecarbonyl)-4-(3-methylmorpholino)-6,7-dihydro-5H-pyrrolo[3,4-d]pyrimidin-2-yl)-3-fluorophenyl)-3-cyclopropylurea]",,,> 10
"C[C@H]1COCCN1c1nc(-c2ccc(NC(=O)Nc3ccc(F)cc3)cc2)nc2c1CN(C)C2 [Example 52, (S)-1-(4-fluorophenyl)-3-(4-(6-methyl-4-(3-methylmorpholino)-6,7-dihydro-5H-pyrrolo[3,4-d]pyrimidin-2-yl)phenyl)urea]",> 10,> 10,
"C[C@H]1COCCN1c1nc(-c2ccc(NC(=O)NC3CC3)cc2)nc2c1CN(C)C2 [Example 38, (S)-1-cyclopropyl-3-(4-(6-methyl-4-(3-methylmorpholino)-6,7-dihydro-5H-pyrrolo[3,4-d]pyrimidin-2-yl)phenyl)urea]",> 10,> 10,
"CCNC(=O)Nc1ccc(-c2nc3c(c(N4CCOC[C@@H]4C)n2)CN(C(=O)c2ccc(F)cc2)C3)cc1 [Example 19, (S)-1-ethyl-3-(4-(6-(4-fluorobenzoyl)-4-(3-methylmorpholino)-6,7-dihydro-5H-pyrrolo[3,4-d]pyrimidin-2-yl)phenyl)urea]",> 10,> 10,
"CCNC(=O)Nc1ccc(-c2nc3c(c(N4CCOC[C@@H]4C)n2)CN(C)C3)c(F)c1 [Example 160, (S)-1-ethyl-3-(3-fluoro-4-(6-methyl-4-(3-methylmorpholino)-6,7-dihydro-5H-pyrrolo[3,4-d]pyrimidin-2-yl)phenyl)urea]",,,> 10
"CCNC(=O)Nc1ccc(-c2nc3c(c(N4CCOC[C@@H]4C)n2)CN(CC)C3)cc1 [Example 39, (S)-1-ethyl-3-(4-(6-ethyl-4-(3-methylmorpholino)-6,7-dihydro-5H-pyrrolo[3,4-d]pyrimidin-2-yl)phenyl)urea]",> 10,> 10,
"CCNC(=O)Nc1ccc(-c2nc3c(c(N4CCOC[C@@H]4C)n2)CCNC3)c(F)c1 [Example 164, (S)-1-ethyl-3-(3-fluoro-4-(4-(3-methylmorpholino)-5,6,7,8-tetrahydropyrido[3,4-d]pyrimidin-2-yl)phenyl)urea]",,,> 10
"CCCNC(=O)Nc1ccc(-c2nc3c(c(N4CCOC[C@@H]4C)n2)CN(CC2CC2)C3)cc1 [Example 49, (S)-1-(4-(6-(cyclopropylmethyl)-4-(3-methylmorpholino)-6,7-dihydro-5H-pyrrolo[3,4-d]pyrimidin-2-yl)phenyl)-3-propylurea]",> 10,> 10,
"CCNC(=O)Nc1ccc(-c2nc3c(c(N4CCOC[C@@H]4C)n2)CCN(C(=O)c2ccc(F)cc2)C3)cc1 [Example 24, (S)-1-ethyl-3-(4-(7-(4-fluorobenzoyl)-4-(3-methylmorpholino)-5,6,7,8-tetrahydropyrido[3,4-d]pyrimidin-2-yl)phenyl)urea]",> 10,> 10,
"CC(C)NC(=O)N1CCc2c(nc(-c3ccc(NC(=O)NC4CC4)cc3F)nc2N2CCOC[C@@H]2C)C1 [Example 189, (S)-2-(4-(3-cyclopropylureido)-2-fluorophenyl)-N-isopropyl-4-(3-methylmorpholino)-5,6-dihydropyrido[3,4-d]pyrimidine-7(8H)-carboxamide]",,,> 10
"CCNC(=O)Nc1ccc(-c2nc3c(c(N4CCOC[C@@H]4C)n2)CN(C(=O)C(C)C)C3)cc1 [Example 21, (S)-1-ethyl-3-(4-(6-isobutyryl-4-(3-methylmorpholino)-6,7-dihydro-5H-pyrrolo[3,4-d]pyrimidin-2-yl)phenyl)urea]",1 to 10,1 to 10,
"CC(C)N1Cc2nc(-c3ccc(NC(=O)NCCF)cc3F)nc(N3CCOC[C@@H]3C)c2C1 [Example 186, (S)-1-(3-fluoro-4-(6-isopropyl-4-(3-methylmorpholino)-6,7-dihydro-5H-pyrrolo[3,4-d]pyrimidin-2-yl)phenyl)-3-(2-fluoroethyl)urea]",,,1 to 10
"C[C@H]1COCCN1c1nc(-c2ccc(NC(=O)NC3CC3)cc2)nc2c1CN(CC(C)(C)C)C2 [Example 25, (S)-1-cyclopropyl-3-(4-(4-(3-methylmorpholino)-6-neopentyl-6,7-dihydro-5H-pyrrolo[3,4-d]pyrimidin-2-yl)phenyl)urea]",> 10,> 10,
"CCNC(=O)Nc1ccc(-c2nc3c(c(N4CCOC[C@@H]4C)n2)CN(Cc2ccc(F)cc2)C3)cc1 [Example 29, (S)-1-ethyl-3-(4-(6-(4-fluorobenzyl)-4-(3-methylmorpholino)-6,7-dihydro-5H-pyrrolo[3,4-d]pyrimidin-2-yl)phenyl)urea]",> 10,> 10,
"CNC(=O)Nc1ccc(-c2nc3c(c(N4CCOC[C@@H]4C)n2)CCNC3)cc1 [Example 16, (S)-1-methyl-3-(4-(4-(3-methylmorpholino)-5,6,7,8-tetrahydropyrido[3,4-d]pyrimidin-2-yl)phenyl)urea]",> 10,> 10,
"CCNC(=O)Nc1ccc(-c2nc3c(c(N4CCOC[C@@H]4C)n2)CN(C=O)C3)cc1 [Example 8, (S)-1-ethyl-3-(4-(6-formyl-4-(3-methylmorpholino)-6,7-dihydro-5H-pyrrolo[3,4-d]pyrimidin-2-yl)phenyl)urea]",> 10,> 10,
"COC(=O)N1Cc2nc(-c3ccc(NC(=O)NCCF)cc3F)nc(N3CCOC[C@@H]3C)c2C1 [Example 183, (S)-methyl 2-(2-fluoro-4-(3-(2-fluoroethyl)ureido)phenyl)-4-(3-methylmorpholino)-5H-pyrrolo[3,4-d]pyrimidine-6(7H)-carboxylate]",,,> 10
"CCNC(=O)Nc1ccc(-c2nc3c(c(N4CCOC[C@@H]4C)n2)CN(C(C)=O)C3)cc1 [Example 18, (S)-1-(4-(6-acetyl-4-(3-methylmorpholino)-6,7-dihydro-5H-pyrrolo[3,4-d]pyrimidin-2-yl)phenyl)-3-ethylurea]",1 to 10,1 to 10,
"CCNC(=O)Nc1cc(F)c(-c2nc3c(c(N4CCOC[C@@H]4C)n2)CN(C(=O)OCC)C3)cc1F [Example 141, (S)-ethyl 2-(4-(3-ethylureido)-2,5-difluorophenyl)-4-(3-methylmorpholino)-5H-pyrrolo[3,4-d]pyrimidine-6(7H)-carboxylate]",,,> 10
"CCN1Cc2nc(-c3ccc(NC(=O)NC4CC4)cc3)nc(N3CCOC[C@@H]3C)c2C1 [Example 36, (S)-1-cyclopropyl-3-(4-(6-ethyl-4-(3-methylmorpholino)-6,7-dihydro-5H-pyrrolo[3,4-d]pyrimidin-2-yl)phenyl)urea]",> 10,> 10,
"CC(=O)N1Cc2nc(-c3ccc(NC(=O)NC4CC4)cc3)nc(N3CCOC[C@@H]3C)c2C1 [Example 20, (S)-1-(4-(6-acetyl-4-(3-methylmorpholino)-6,7-dihydro-5H-pyrrolo[3,4-d]pyrimidin-2-yl)phenyl)-3-cyclopropylurea]",> 10,> 10,
